Assay results from US20170190671A1, “BIS(ARYL)CATECHOL DERIVATIVES AS HERBICIDES” (E I DU PONT DE NEMOURS AND COMPANY, priority 2014, published 2017).

Tests used:
Format in all cases: in vivo
[1] = system: ragweed (common ragweed, Ambrosia elatior); assay: Test A postemergence; settings: 0 to 100 scale
In short: (§1)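 Greenhouse pot test, loam/sand soil. Formulation: non-phytotoxic solvent mix plus surfactant. Pre: directed spray onto soil after sowing. Post: plants at 1–2 leaf, 2–10 cm. Rated visually vs untreated controls at ~10 d, 0 (no effect) to 100 (complete control).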

[2] = system: wheat (Triticum aestivum); assay: Test A postemergence; settings: 0 to 100 scale
In short: as §1

[3] = system: corn (Zea mays); assay: Test A postemergence; settings: 0 to 100 scale
In short: as §1

[4] = system: Italian ryegrass (Lolium multiflorum); assay: Test A postemergence; settings: 0 to 100 scale
In short: as §1

[5] = system: giant foxtail (Setaria faberii); assay: Test A postemergence; settings: 0 to 100 scale
In short: as §1

[6] = system: barnyardgrass (Echinochloa crus-galli); assay: Test A postemergence; settings: 0 to 100 scale
In short: as §1

[7] = system: galium (catchweed bedstraw, Galium aparine); assay: Test A postemergence; settings: 0 to 100 scale
In short: as §1

[8] = system: blackgrass (Alopecurus myosuroides); assay: Test A postemergence; settings: 0 to 100 scale
In short: as §1

[9] = system: pigweed (Amaranthus retroflexus); assay: Test A postemergence; settings: 0 to 100 scale
In short: as §1

[10] = system: kochia (Kochia scoparia); assay: Test A postemergence; settings: 0 to 100 scale
In short: as §1

[11] = system: pigweed (Amaranthus retroflexus); assay: Test C postemergence; settings: scale 0 to 100
In short: (§2)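 Seeds sown in a loam soil and sand blend were treated preemergence; plants in peat-moss/vermiculite medium were sprayed at the 1- to 4-leaf stage (2-18 cm). Chemicals were in a non-phytotoxic surfactant-containing solvent. After 13 to 15 days in a greenhouse, injury was visually rated against controls on a 0-100 scale.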

[12] = system: kochia (Kochia scoparia); assay: Test C postemergence; settings: scale 0 to 100
In short: as §2

[13] = system: ragweed (common ragweed, Ambrosia elatior); assay: Test A preemergence; settings: for Ragweed plant response rating: 0 to 100 scale (0 no effect, 100 complete control)
In short: as §1

[14] = system: Italian ryegrass (Lolium multiflorum); assay: Test A preemergence; settings: for Ryegrass, Italian plant response rating: 0 to 100 scale (0 no effect, 100 complete control)
In short: as §1

[15] = system: giant foxtail (Setaria faberii); assay: Test A preemergence; settings: for Foxtail, Giant plant response rating: 0 to 100 scale (0 no effect, 100 complete control)
In short: as §1

[16] = system: barnyardgrass (Echinochloa crus-galli); assay: Test A preemergence
In short: as §1

[17] = system: pigweed (Amaranthus retroflexus); assay: Test A preemergence; settings: for Pigweed plant response rating: 0 to 100 scale (0 no effect, 100 complete control)
In short: as §1

[18] = system: kochia (Kochia scoparia); assay: Test A preemergence; settings: for Kochia plant response rating: 0 to 100 scale (0 no effect, 100 complete control)
In short: as §1

[19] = system: ducksalad (Heteranthera limosa); assay: Test B flooded paddy; settings: 250 g ai/ha, Flood, 13 to 15 days, scale 0 (no effect) to 100 (complete control)
In short: (§3)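 Visual injury ratings against untreated controls, taken 13 to 15 days after compound was added to paddy water standing 3 cm above the soil.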

[20] = system: barnyardgrass (Echinochloa crus-galli); assay: Test B flooded paddy; settings: 250 g ai/ha, Flood, 13 to 15 days, scale 0 (no effect) to 100 (complete control)
In short: as §3

[21] = system: sedge, umbrella (small-flower umbrella sedge, Cyperus difformis); assay: Test B flooded paddy; settings: 250 g ai/ha, Flood, 13 to 15 days, scale 0 (no effect) to 100 (complete control)
In short: as §3

[22] = system: rice (Oryza sativa); assay: Test B flooded paddy; settings: 250 g ai/ha, Flood, 13 to 15 days, scale 0 (no effect) to 100 (complete control)
In short: as §3

## Fc1cccc(Oc2ncc(Cl)cn2)c1Oc1ccc(Cl)nc1 [Compound 20]
[1]; Ambrosia artemisiifolia, post-emergence, 240 h, 1000 g ai/ha, read-out: Plant response rating, Ragweed
  pest or weed control at 1000 g/ha: 60%
[2]; Triticum aestivum, post-emergence, 240 h, 1000 g ai/ha, read-out: Plant response rating, Wheat
  plant injury at 1000 g/ha: 50%
[3]; Zea mays, post-emergence, 240 h, 1000 g ai/ha
  Corn plant response rating (crop injury, 0 = no effect, 100 = complete kill) at 1000 g/ha: 50%
[4]; Lolium multiflorum, post-emergence, 240 h, 1000 g ai/ha, read-out: Plant response rating, Ryegrass, Italian
  pest or weed control at 1000 g/ha: 40%
[5]; Setaria faberi, post-emergence, 240 h, 1000 g ai/ha, read-out: Plant response rating, Foxtail, Giant
  pest or weed control at 1000 g/ha: 90%
[6]; Echinochloa crus-galli, post-emergence, 240 h, 1000 g ai/ha, 0 no effect, 100 complete control, read-out: Plant response rating, Barnyardgrass
  pest or weed control at 1000 g/ha: 90%
[7]; Galium, post-emergence, 240 h, 1000 g ai/ha, read-out: Plant response rating, Galium
  pest or weed control at 1000 g/ha: 90%
[8]; Alopecurus myosuroides, post-emergence, 240 h, 1000 g ai/ha, read-out: Plant response rating, Blackgrass
  pest or weed control at 1000 g/ha: 60%
[9]; Amaranthus retroflexus, post-emergence, 240 h, 1000 g ai/ha, read-out: Plant response rating, Pigweed
  pest or weed control at 1000 g/ha: 100%
[10]; Bassia scoparia, post-emergence, 240 h, 1000 g ai/ha, read-out: Plant response rating, Kochia
  pest or weed control at 1000 g/ha: 90%
[11]; Amaranthus retroflexus, post-emergence, 336 h, Postemergence, 31 g ai/ha, read-out: Plant response rating, Pigweed
  pest or weed control at 31 g/ha: 75%
[11]; Amaranthus retroflexus, post-emergence, 336 h, Postemergence, 62 g ai/ha, read-out: Plant response rating, Pigweed
  pest or weed control at 62 g/ha: 80%
[11]; Amaranthus retroflexus, post-emergence, 336 h, Postemergence, 125 g ai/ha, read-out: Plant response rating, Pigweed
  pest or weed control at 125 g/ha: 90%
[11]; Amaranthus retroflexus, post-emergence, 336 h, Postemergence, 250 g ai/ha, read-out: Plant response rating, Pigweed
  pest or weed control at 250 g/ha: 98%
[12]; Bassia scoparia, post-emergence, Postemergence, 31 g ai/ha, read-out: Plant response rating, Kochia
  pest or weed control at 31 g/ha: 80%
[12]; Bassia scoparia, post-emergence, Postemergence, 62 g ai/ha, read-out: Plant response rating, Kochia
  pest or weed control at 62 g/ha: 90%
[12]; Bassia scoparia, post-emergence, Postemergence, 125 g ai/ha, read-out: Plant response rating, Kochia
  pest or weed control at 125 g/ha: 90%
[12]; Bassia scoparia, post-emergence, Postemergence, 250 g ai/ha, read-out: Plant response rating, Kochia
  pest or weed control at 250 g/ha: 98%
[13]; Ambrosia artemisiifolia, pre-emergence, 240 h, 1000 g ai/ha, 0 to 100 scale, read-out: Plant response rating, Ragweed
  pest or weed control at 1000 g/ha: 40%
[14]; Lolium multiflorum, pre-emergence, 240 h, 1000 g ai/ha, 0 to 100 scale, read-out: Plant response rating, Ryegrass, Italian
  pest or weed control at 1000 g/ha: 70%
[15]; Setaria faberi, pre-emergence, 240 h, 1000 g ai/ha, 0 to 100 scale, read-out: Plant response rating, Foxtail, Giant
  pest or weed control at 1000 g/ha: 100%
[16]; Echinochloa crus-galli, pre-emergence, 240 h, 1000 g ai/ha, 0 to 100 scale, read-out: Plant response rating, Barnyardgrass
  pest or weed control at 1000 g/ha: 100%
[17]; Amaranthus retroflexus, pre-emergence, 240 h, 1000 g ai/ha, 0 to 100 scale, read-out: Plant response rating, Pigweed
  pest or weed control at 1000 g/ha: 100%
[18]; Bassia scoparia, pre-emergence, 240 h, 1000 g ai/ha, 0 to 100 scale, read-out: Plant response rating, Kochia
  pest or weed control at 1000 g/ha: 90%
[19]; Heteranthera limosa, 336 h, read-out: Plant response rating, Ducksalad
  pest or weed control at 250 g/ha: 95%
[20]; Echinochloa crus-galli, 336 h, read-out: Plant response rating, Barnyardgrass
  pest or weed control at 250 g/ha: 20%
[21]; Cyperus difformis, 336 h, read-out: Plant response rating, Sedge, Umbrella
  pest or weed control at 250 g/ha: 90%
[22]; Oryza sativa, 336 h, read-out: Plant response rating, Rice
  plant injury at 250 g/ha: 15%

## Fc1ccc(F)c(Oc2ncc(C(F)(F)F)cn2)c1Oc1ncc(Cl)cn1 [Compound 25]
[1]; 31 g ai/ha
  Plant response rating, Ragweed: 20
[1]; 125 g ai/ha
  Plant response rating, Ragweed: 30
[2]; 31 g ai/ha
  Plant response rating, Wheat: 0
[2]; 125 g ai/ha
  Plant response rating, Wheat: 30
[3]; 31 g ai/ha
  Plant response rating, Corn: 10
[3]; 125 g ai/ha
  Plant response rating, Corn: 30
[4]; 31 g ai/ha
  Plant response rating, Ryegrass, Italian: 0
[4]; 125 g ai/ha
  Plant response rating, Ryegrass, Italian: 50
[5]; 31 g ai/ha
  Plant response rating, Foxtail, Giant: 30
[5]; 125 g ai/ha
  Plant response rating, Foxtail, Giant: 50
[6]; 31 g ai/ha
  Plant response rating, Barnyardgrass: 10
[6]; 125 g ai/ha
  Plant response rating, Barnyardgrass: 60
[7]; 31 g ai/ha
  Plant response rating, Galium: 80
[7]; 125 g ai/ha
  Plant response rating, Galium: 90
[8]; 31 g ai/ha
  Plant response rating, Blackgrass: 60
[8]; 125 g ai/ha
  Plant response rating, Blackgrass: 70
[9]; 31 g ai/ha
  Plant response rating, Pigweed: 90
[9]; 125 g ai/ha
  Plant response rating, Pigweed: 100
[10]; 31 g ai/ha
  Plant response rating, Kochia: 50
[10]; 125 g ai/ha
  Plant response rating, Kochia: 70
[11]; 8 g ai/ha, postemergence
  Plant response rating, Pigweed: 75
[11]; Postemergence, 31 g ai/ha
  Plant response rating, Pigweed: 85
[11]; Postemergence, 62 g ai/ha
  Plant response rating, Pigweed: 95
[12]; 8 g ai/ha, postemergence
  Plant response rating, Kochia: 0
[12]; Postemergence, 16 g ai/ha
  Plant response rating, Kochia: 50
[12]; Postemergence, 31 g ai/ha
  Plant response rating, Kochia: 60
[12]; Postemergence, 62 g ai/ha
  Plant response rating, Kochia: 75
[13]; 31 g ai/ha
  Ragweed plant response rating: 0
[13]; 125 g ai/ha
  Ragweed plant response rating: 0
[14]; 31 g ai/ha
  Ryegrass, Italian plant response rating: 10
[14]; 125 g ai/ha
  Ryegrass, Italian plant response rating: 40
[15]; 31 g ai/ha
  Foxtail, Giant plant response rating: 50
[15]; 125 g ai/ha
  Foxtail, Giant plant response rating: 90
[16]; 31 g ai/ha, 0 to 100 scale (0 no effect, 100 complete control)
  Barnyardgrass plant response rating: 10
[16]; 125 g ai/ha, 0 to 100 scale
  Plant response rating, Barnyardgrass: 70
[17]; 31 g ai/ha
  Pigweed plant response rating: 90
[17]; 125 g ai/ha
  Pigweed plant response rating: 100
[18]; 31 g ai/ha
  Kochia plant response rating: 50
[18]; 125 g ai/ha
  Kochia plant response rating: 100
[19]
  Plant response rating, Ducksalad: 90
[20]
  Plant response rating, Barnyardgrass: 55
[21]
  Plant response rating, Sedge, Umbrella: 75
[22]
  Plant response rating, Rice: 20
